In test [1] the test system is human PBMC, CD3/CD28 stimulated. The experiment in a line: Cytokine production of CD3/CD28 stimulated PBMC. In kind it is cell-based. Conditions: for CCL17 levels, in words / levels of IL-4 and IL-13 as compared to control, in words: CD3/CD28 stimulated PBMC, pre-incubation; for Relative level of CCL17, Mean (s.e.) / Relative level of IL-4, Mean (s.e.) / Relative level of IL-13, Mean (s.e.): CD3/CD28 stimulated, 24 h pre-incubation, 0.2 wt % 2′-FL, 0.1 wt % 3′-GL, blanc = 1, observed. The procedure:
Isolation of PBMC from healthy donors: Human peripheral blood mononuclear cells (PBMC) from healthy donors were isolated from buffy coats (Sanquin, Amsterdam, the Netherlands). PBMC were obtained by centrifugation using Leucosep tubes (Greiner Bio-One). PBMC were collected and washed in PBS (Gibco, Thermo Fisher Technologies)+2% heat-inactivated FCS (Invitrogen), followed by hypotonic lysis of erythrocytes with sterile lysis buffer (0.15 M NH4Cl, 0.01 M KHCO3 and 0.1 mM EDTA, pH of 7.4 at 4° C., all from Merck, Darmstadt, Germany). After lysis, the PBMC were resuspended in freezing medium (70% RPMI 1640 medium (Gibco, Thermo Fisher Technologies) supplemented with 10% heat-inactivated FCS and 100 U/ml penicillin-streptomycin, 20% heat-inactivated FCS and 10% DMSO (Sigma)) and cryopreserved.
PBMC activation model: PBMC (0.2·10^6 cell/well) were cultured in 96-well flat bottom plates (Corning). For 24 hours the cells were pre-incubated with 2′-FL (Jennewein), 3′-GL (0-0.3% w/v; Carbosynth) or sodium butyrate (0.2 mM; Sigma Aldrich) and combinations thereof. Subsequently, the cells were CD3/CD28-activated (Pelicluster CD3 and Pelicluster CD28, Sanquin) for an additional 24 hours. After incubation, IFNγ was measured by ELISA in the supernatants (see below). To determine cell activity after stimulation, PBMC were incubated with cell proliferation reagent WST-1 (10 μl; Roche) and/or 10% Triton (5 μl; negative control). After 3 hours, absorbance was measured at OD450 nm and OD650 nm and cell activity was calculated according to manufacturer's instructions.
Cytokine production of PBMC: PBMC were incubated with indicated reagents. After incubation, the supernatants were collected and IL2, IL6, IL10, IL13, IL21, TNFα, IFNγ, MIF, CCL1, CCL13, CCL17, CCL20, CCL22 and CXCL8-11 levels were measured by conducting a validated multiplex immunoassay based on Luminex technology (xMAP, Luminex Austin Tex. USA). Acquisition was conducted with the Biorad FlexMAP3D (Biorad laboratories, Hercules USA) in combination with xPONENT software version 4.2 (Luminex). Data was analyzed by 5-parametric curve fitting using Bio-Plex Manager software, version 6.1.1 (Biorad).
After PBMC stimulation, cell culture supernatants were collected, after which cytokine responses were measured in order to test immune responsiveness of the cells. The levels of cytokines measured in stimulated conditions were corrected for the (low) levels of the cytokines measured in non-stimulated conditions. In addition, since each donor is reacting in its own efficiency onto the T cell stimulus, we calculated the individual index of cytokine response by dividing the intervention induced response by the basal stimulated response.
Subsequently, in order to test the direct effect of specific compounds on PBMC activity, the cells were activated with CD3/CD28 for 24 hours after a pre-incubated for 24 h with either 2′-FL, 3′-GL and combinations thereof. In addition, since each donor is reacting in its own efficiency onto the T cell stimulus, the individual index of cytokine response was calculated by dividing the intervention induced response by the basal stimulated response (the blanc is set at 1). In this way the intervention within 10 different donors has been studied.

Test [2] relates to human PBMC, unstimulated. The test can be described thus: Cytokine production of unstimulated PBMC (IL10, CCL20). Conditions: for CCL20 level as compared to blanc control, in words: unstimulated PBMC; for Relative CCL 20 mean (s.e.): 0.1 w/v % 3′-GL. In kind it is cell-based. The text has this: Isolation of PBMC from healthy donors: Human peripheral blood mononuclear cells (PBMC) from healthy donors were isolated from buffy coats (Sanquin, Amsterdam, the Netherlands). PBMC were obtained by centrifugation using Leucosep tubes (Greiner Bio-One). […] After lysis, the PBMC were resuspended in freezing medium (70% RPMI 1640 medium (Gibco, Thermo Fisher Technologies) supplemented with 10% heat-inactivated FCS and 100 U/ml penicillin-streptomycin, 20% heat-inactivated FCS and 10% DMSO (Sigma)) and cryopreserved. PBMC activation model: PBMC (0.2·10^6 cell/well) were cultured in 96-well flat bottom plates (Corning). For 24 hours the cells were pre-incubated with 2'-FL (Jennewein), 3'-GL (0-0.3% w/v; […] Sigma Aldrich) and combinations thereof. Subsequently, the cells were CD3/CD28-activated (Pelicluster CD3 and Pelicluster CD28, Sanquin) for an additional 24 hours. After incubation, IFNγ was measured by ELISA in the supernatants (see below). […] Roche) and/or 10% Triton (5 μl; negative control). […] Cytokine production of PBMC: PBMC were incubated with indicated reagents. After incubation, the supernatants were collected and IL2, IL6, IL10, IL13, IL21, TNFα, IFNγ, MIF, CCL1, CCL13, CCL17, CCL20, CCL22 and CXCL8-11 levels were measured by conducting a validated multiplex immunoassay based on Luminex technology (xMAP, Luminex Austin Tex. USA). Acquisition was conducted with the Biorad […] (Biorad laboratories, Hercules USA) in combination with xPONENT software version 4.2 (Luminex). Data was analyzed by 5-parametric curve fitting using Bio-Plex Manager software, version 6.1.1 (Biorad). After PBMC stimulation, cell culture supernatants were collected, after which cytokine responses were measured in order to test immune responsiveness of the cells. The levels of cytokines measured in stimulated conditions were corrected for the (low) levels of the cytokines measured in non-stimulated conditions. In addition, since each donor is reacting in its own efficiency onto the T cell stimulus, we calculated the individual index of cytokine response by dividing the intervention induced response by the basal stimulated response.

[3] abbreviates: unstimulated, 0.2% w/v 2′-FL, 0.2 mM butyrate, blanc = 1, observed.

Here are results for 2 compounds from patent US20220110985A1, “NUTRITIONAL COMPOSITION COMPRISING 2'FUCOSYLLACTOSE AND 3'GALACTOSYLLACTOSE” (N.V. Nutricia, priority 2019, published 2022).

`C[C@@H]1O[C@@H](O[C@H]2[C@H](O[C@H]3[C@H](O)[C@@H](O)C(O)O[C@@H]3CO)O[C@H](CO)[C@H](O)[C@@H]2O)[C@@H](O)[C@H](O)[C@@H]1O` (stereo partly drawn) [2′-FL, α-L-Fuc-(1→2)-β-D-Gal-(1→4)-D-Glc]: in test [1], the “CCL17 levels, in words” value was “no significant effect”; the “levels of IL-4 and IL-13 as compared to control, in words” value was “had no effect”; the “Relative level of CCL17, Mean (s.e.)” value is given as 1.061 (0.117); the “Relative level of IL-4, Mean (s.e.)” value is given as 0.9887 (0.0517). Moreover, the “Relative level of IL-13, Mean (s.e.)” value in test [1] is 1.039 (0.080). Besides, in test [2] (0.2% 2′-FL, 0.2 mM butyrate), the “IL10 level as compared to blanc control, in words” value is reported as “significantly (p<0.05) increased level”. Moreover, the “CCL20 level as compared to blanc control, in words” value in test [2] was “increased level”. Also, in test [2] (setting [3]), the “Relative IL10 level, mean (se)” value is recorded as 3.361 (1.867) and the “Relative CCL 20 mean (s.e.)” value is given as 2.586 (0.281).
Consider “Gal (beta 1-3)-Gal (beta 1-4)-Glc [3′-GL]”, for which, in test [1], the “CCL17 levels, in words” value is “no significant effect”; the “levels of IL-4 and IL-13 as compared to control, in words” value was “a decrease was detected”; the “Relative level of CCL17, Mean (s.e.)” value was 0.6212 (0.0531); the “Relative level of IL-4, Mean (s.e.)” value is 0.5825 (0.0413). For the same compound, the “Relative level of IL-13, Mean (s.e.)” value in test [1] is reported as 0.5472 (0.0723). Besides, the “CCL20 level as compared to blanc control, in words” value in test [2] is “did not have a statistically significant effect”. For the same compound, in test [2] (setting [3]), the “Relative CCL 20 mean (s.e.)” value was 1.164 (0.212).
